Data from patent US12421222B2 (AUGUSTINE THERAPEUTICS, priority 2021, dated 2025).

System: acetylated tubulin (Lys40) in HeLa cells
Test: Acetylated α-tubulin measurement in vitro (immunocytochemistry)
Type: cell-based
Conditions: Homo sapiens, 6 hours incubation, acetylated tubulin (Lys40) by immunocytochemistry, read-out: IC50 (Tubulin deacetylation)
Outline: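 HeLa cells in serum-free medium treated 6 h at 37 °C (final DMSO 0.1–0.4%), then PFA-fixed and immunostained for acetyl-Lys40 and total α-tubulin; high-content imaging.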

| Structure (SMILES) | IC50 [nM] |
| --- | --- |
| COc1ccc2nc(C)nc(SCC(=O)c3ccc(CNC(=O)C4CC4(F)F)s3)c2c1 (centres unmarked) [Example 39, 2,2-difluoro-N-((5-(2-((6-methoxy-2-methylquinazolin-4-yl)thio)acetyl)thiophen-2-yl)methyl)cyclopropane-1-carboxamide] | 500 to 1000 |
| Cn1ncc2c(SCC(=O)c3ccc(CNS(C)(=O)=O)s3)ncnc21 [Example 87] | 1000 to 3330 |
| Cn1ncc2c(SCC(=O)c3cc(F)c(CNC(=O)C(C)(C)C)s3)ncnc21 [Example 28, N-((3-fluoro-5-(2-((1-methyl-1H-pyrazolo[3,4-d]pyrimidin-4-yl)thio)acetyl)thiophen-2-yl)methyl)pivalamide] | 1000 to 3330 |
| COc1ccc2c(SCC(=O)c3ccc(CNC(=O)C(C)(C)C)s3)nc(C)nc2c1 [Example 12, N-((5-(2-((7-methoxy-2-methylquinazolin-4-yl)thio)acetyl)thiophen-2-yl)methyl)pivalamide] | 1000 to 3330 |
| Cc1nc(SCC(=O)c2ccc(CNC(=O)C(C)(C)C)s2)c2ccc(F)cc2n1 [Example 10, N-((5-(2-((7-fluoro-2-methylquinazolin-4-yl)thio)acetyl)thiophen-2-yl)methyl)pivalamide] | 1000 to 3330 |
| Cc1nc(SCC(=O)c2ccc(CNC(=O)CO)s2)c2c(F)c(Cl)ccc2n1 [Example 146, N-((5-(2-((6-chloro-5-fluoro-2-methylquinazolin-4-yl)thio)acetyl)thiophen-2-yl)methyl)-2-hydroxyacetamide] | 100 to 500 |
| O=C(CSc1nc(C(F)(F)F)nc2ccc(N3CCOCC3)cc12)c1ccc(CNC(=O)C2(O)CC2)s1 [Example 47, 1-hydroxy-N-((5-(2-((6-morpholino-2-(trifluoromethyl)quinazolin-4-yl)thio)acetyl)thiophen-2-yl)methyl)cyclopropane-1-carboxamide] | 100 to 500 |
| Cn1ncc2c(SCC(=O)c3ccc(C4CCN(C(=O)CO)C4)s3)ncnc21 (centres unmarked) [Example 86, 2-hydroxy-1-(3-(5-(2-((1-methyl-1H-pyrazolo[3,4-d]pyrimidin-4-yl)thio)acetyl)thiophen-2-yl)157yrrolidine-1-yl)ethan-1-one] | 1000 to 3330 |

The remaining lines, values ahead:

| IC50 [nM] | Structure (SMILES) |
| --- | --- |
| 100 to 500 | O=C(CO)NCc1ccc(C(=O)CSc2nc(C(F)(F)F)nc3c2cnn3C2CC2)s1 [Example 133, N-((5-(2-((1-cyclopropyl-6-(trifluoromethyl)-1H-pyrazolo[3,4-d]pyrimidin-4-yl)thio)acetyl)thiophen-2-yl)methyl)-2-hydroxyacetamide] |
| 100 to 500 | Cn1cc2c(SCC(=O)c3ccc(CNC(=O)CO)s3)nc(C(F)F)nc2n1 [Example 69, N-((5-(2-((6-(difluoromethyl)-2-methyl-2H-pyrazolo[3,4-d]pyrimidin-4-yl)thio)acetyl)thiophen-2-yl)methyl)-2-hydroxyacetamide] |
| 100 to 500 | COc1cccc2nc(C)nc(SCC(=O)c3ccc(CNC(=O)CO)s3)c12 [Example 143, 2-hydroxy-N-((5-(2-((5-methoxy-2-methylquinazolin-4-yl)thio)acetyl)thiophen-2-yl)methyl)acetamide] |
| ≤ 100 | Cn1cc2c(SCC(=O)c3ccc(CNC(=O)CO)s3)nc(C(F)(F)F)nc2n1 [Example 61, 2-hydroxy-N-((5-(2-((2-methyl-6-(trifluoromethyl)-2H-pyrazolo[3,4-d]pyrimidin-4-yl)thio)acetyl)thiophen-2-yl)methyl)acetamide] |
| ≤ 100 | COc1ccc2nc(C)nc(SCC(=O)c3ccc(CNC(=O)[C@@H](C)O)s3)c2c1 [Example 186, (R)-2-hydroxy-N-((5-(2-((6-methoxy-2-methylquinazolin-4-yl)thio)acetyl)thiophen-2-yl)methyl)propanamide] |
| ≤ 100 | Cc1nc(SCC(=O)c2ccc(CNC(=O)CO)s2)c2cc(N3CCN(C)CC3)ccc2n1 [Example 85, 2-hydroxy-N-((5-(2-((2-methyl-6-(4-methylpiperazin-1-yl)quinazolin-4-yl)thio)acetyl)thiophen-2-yl)methyl)acetamide] |
